Article PMC9405524, “Pre‐steady‐state kinetics and solvent isotope effects support the “billiard‐type” transport mechanism in Na ^+‐translocating pyrophosphatase” (Protein Science : A Publication of the Protein Society, 2022)

Biological target: T1, Tm‐mPPase (Thermotoga maritima membrane pyrophosphatase) (Thermotoga maritima, UniProt Q9S5X0)
T1 construct: gene hppA; recombinant in E. coli C41(DE3), assayed in inverted membrane vesicles; homodimer, subunit mass 77 kDa
T1 sequence (Q9S5X0 1-726): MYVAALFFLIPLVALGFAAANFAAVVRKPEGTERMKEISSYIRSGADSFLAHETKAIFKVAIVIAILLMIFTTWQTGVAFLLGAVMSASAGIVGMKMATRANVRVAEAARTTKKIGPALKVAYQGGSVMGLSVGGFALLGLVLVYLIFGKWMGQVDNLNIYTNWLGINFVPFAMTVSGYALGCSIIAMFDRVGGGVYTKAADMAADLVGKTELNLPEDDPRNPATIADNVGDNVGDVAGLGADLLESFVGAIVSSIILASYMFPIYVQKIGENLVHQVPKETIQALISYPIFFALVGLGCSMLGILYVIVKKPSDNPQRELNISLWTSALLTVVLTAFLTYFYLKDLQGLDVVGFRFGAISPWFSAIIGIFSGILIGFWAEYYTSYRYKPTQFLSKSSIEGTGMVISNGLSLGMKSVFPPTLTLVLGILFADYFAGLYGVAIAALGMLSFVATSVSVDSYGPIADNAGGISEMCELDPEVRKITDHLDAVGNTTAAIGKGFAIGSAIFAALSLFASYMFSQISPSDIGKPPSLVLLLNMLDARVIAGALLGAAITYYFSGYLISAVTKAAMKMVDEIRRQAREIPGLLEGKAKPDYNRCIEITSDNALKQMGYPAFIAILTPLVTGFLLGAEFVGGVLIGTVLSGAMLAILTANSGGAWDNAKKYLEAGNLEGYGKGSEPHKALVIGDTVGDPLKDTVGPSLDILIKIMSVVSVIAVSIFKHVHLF
Experiment: inhibition of PPi hydrolysis, active-site titration in inverted membrane vesicles, Pi analyzer
Type: biochemical
Settings: 25°C, pH 7.2, 5 mM MgCl2, 100 mM NaCl, no K+, 8 μM PPi; competitive; tight-binding fit; apparent, not corrected for substrate; read-out: K i ^app

NC(P(=O)(O)O)P(=O)(O)O [AMDP]
Ki: 5 ± 2 nM
